Assays:
[1] = biological target: T1, yeast chorismate mutase (Saccharomyces cerevisiae, UniProt P32178); assay type: biochemical; set-up: gene ARO7; native enzyme in crude sonicated yeast cell extract, not purified; homodimer (known biology); 256 residues; conditions: 1 mM chorismic acid; yeast sonicate; Tris-HCl pH 8; 30 °C
[2] = biological target: T1, yeast chorismate mutase; set-up: gene ARO7; conditions: 1 mM chorismic acid; yeast sonicate; Tris-HCl pH 8; 30 °C; tyrosine 10-500 µM; allosteric
[3] = biological target: T1, yeast chorismate mutase; assay: HPLC of chorismic acid and phenylpyruvate (prephenate converted by acid); assay type: biochemical; set-up: gene ARO7; native enzyme in crude sonicated yeast cell extract, not purified; homodimer (known biology); 256 residues; conditions: 1 mM chorismic acid; yeast sonicate; Tris-HCl pH 8; 30 °C; ABA 10-500 µM

T1 sequence (P32178 whole entry): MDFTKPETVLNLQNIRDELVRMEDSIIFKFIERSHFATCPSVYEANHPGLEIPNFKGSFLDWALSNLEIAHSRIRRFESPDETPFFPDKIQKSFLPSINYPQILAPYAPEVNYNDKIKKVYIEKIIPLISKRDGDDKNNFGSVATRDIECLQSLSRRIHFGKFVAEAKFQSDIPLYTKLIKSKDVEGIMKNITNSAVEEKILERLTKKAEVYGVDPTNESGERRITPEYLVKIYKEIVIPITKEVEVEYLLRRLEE

## C=C(O[C@@H]1C=C(C(=O)O)C=C[C@H]1O)C(=O)O [chorismic acid]
[1]
  HPLC of chorismic acid and phenylpyruvate (prephenate converted by acid): yeast chorismate mutase catalysed the conversion of externally added chorismic acid to prephenic acid

## N[C@@H](Cc1ccc(O)cc1)C(=O)O [Tyrosine]
[2]
  optimal inhibitor concentration (not an IC50): 100 µM

## CC1=CC(=O)CC(C)(C)[C@@]1(O)/C=C/C(C)=C\C(=O)O [(+)-Abscisic acid, 5-(1-hydroxy-2,6,6-trimethyl-4-oxo-2-cyclohexene-1-yl)-3-methyl-pentadienoic acid]
[3]
  inhibitory concentration (range, not an IC50): 200 to 300 µM

— PMC5986790, “Rational Discovery of (+) (S) Abscisic Acid as a Potential Antifungal Agent: a Repurposing Approach” (Scientific Reports, 2018)
